Test results as given in patent US20250195530A1, “POLQ INHIBITORS” (ASTRAZENECA AB, priority 2022, published 2025).

Test system: DLD-1 BRCA2−/− cells
Test: Homologous recombination synthetic lethal inhibition of proliferation, DLD-1 BRCA2-/- (Cell Titre Glo 3D)
Type: cell-based
Settings: Homo sapiens, DLD-1, first proliferation column (c5), taken as DLD-1 BRCA2-/-; read-out: POLQ PD Prolif Lumin (converted)
How it was run: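 Proliferation of HR-deficient DLD-1 BRCA2−/− versus isogenic wild-type DLD-1 was measured by ATP luminescence (CellTiter-Glo 3D). Compound exposure lasted 12 or 7 days, respectively, with a fresh dose on day 6. IC50 was the concentration halving maximal signal.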

SMILES | IC50 [nM]
Cc1ccnc(Cn2c(-c3ccc(C(=O)N[C@H](C)CCO)cc3Cl)nc3c(OC4(C)CC4)ncnc32)c1 [Example T364, (R)-3-chloro-N-(4-hydroxybutan-2-yl)-4-(6-(1-methylcyclopropoxy)-9-((4-methylpyridin-2-yl)methyl)-9H-purin-8-yl)benzamide] | 794
CC[C@@H](O)CNC(=O)c1ccc(-c2nc3c(OC4(C)CC4)ncnc3n2Cc2cc(C)ccn2)c(Cl)c1 [Example T365, (R)-3-chloro-N-(2-hydroxybutyl)-4-(6-(1-methylcyclopropoxy)-9-((4-methylpyridin-2-yl)methyl)-9H-purin-8-yl)benzamide] | 794
Cc1ccnc(Cn2c(-c3ccc(OCC(=O)NC(C)C)cc3Cl)nc3c(OC4(C)CC4)ncnc32)c1 [Example T366, 2-(3-chloro-4-(6-(1-methylcyclopropoxy)-9-((4-methylpyridin-2-yl)methyl)-9H-purin-8-yl)phenoxy)-N-isopropylacetamide] | 200
CC(=O)NCCCOc1ccc(-c2nc3c(OC4(C)CC4)ncnc3n2Cc2cc(C)ccn2)c(Cl)c1 [Example T367, N-(3-(3-chloro-4-(6-(1-methylcyclopropoxy)-9-((4-methylpyridin-2-yl)methyl)-9H-purin-8-yl)phenoxy)propyl)acetamide] | 316
Cc1ccnc(Cn2c(-c3ccc(CCNC(=O)[C@@H](C)O)cc3Cl)nc3c(OC4(C)CC4)ncnc32)c1 [Example T368, (R)-N-(3-chloro-4-(6-(1-methylcyclopropoxy)-9-((4-methylpyridin-2-yl)methyl)-9H-purin-8-yl)phenethyl)-2-hydroxypropanamide] | 631
Cc1ccnc(Cn2c(-c3ccc(CC(=O)NCCCO)cc3Cl)nc3c(OC4(C)CC4)ncnc32)c1 [Example T370, 2-(3-chloro-4-(6-(1-methylcyclopropoxy)-9-((4-methylpyridin-2-yl)methyl)-9H-purin-8-yl)phenyl)-N-(3-hydroxypropyl)acetamide] | 1000
Cc1ccnc(Cn2c(-c3ccc(OCC(=O)NC[C@H](C)O)cc3Cl)nc3c(OC4(C)CC4)ncnc32)c1 [Example T372, (S)-2-(3-chloro-4-(6-(1-methylcyclopropoxy)-9-((4-methylpyridin-2-yl)methyl)-9H-purin-8-yl)phenoxy)-N-(2-hydroxypropyl)acetamide] | 398
Cc1ccnc(Cn2c(-c3ccc(OCC(=O)NCCCO)cc3Cl)nc3c(OC4(C)CC4)ncnc32)c1 [Example T373, 2-(3-chloro-4-(6-(1-methylcyclopropoxy)-9-((4-methylpyridin-2-yl)methyl)-9H-purin-8-yl)phenoxy)-N-(3-hydroxypropyl)acetamide] | 316
Cc1ccnc(Cn2c(-c3ccc(OCC(=O)N(C)CCO)cc3Cl)nc3c(OC4(C)CC4)ncnc32)c1 [Example T374, 2-(3-chloro-4-(6-(1-methylcyclopropoxy)-9-((4-methylpyridin-2-yl)methyl)-9H-purin-8-yl)phenoxy)-N-(2-hydroxyethyl)-N-methylacetamide] | 1260
Cc1ccnc(Cn2c(-c3ccc(OCCNC(=O)[C@@H](C)O)cc3Cl)nc3c(OC4(C)CC4)ncnc32)c1 [Example T375, (R)-N-(2-(3-chloro-4-(6-(1-methylcyclopropoxy)-9-((4-methylpyridin-2-yl)methyl)-9H-purin-8-yl)phenoxy)ethyl)-2-hydroxypropanamide] | 251
Cc1ccnc(Cn2c(-c3ccc(OCCN(C)C)cc3Cl)nc3c(OC4(C)CC4)nccc32)c1 [Example T381, 2-(3-chloro-4-(4-(1-methylcyclopropoxy)-1-((4-methylpyridin-2-yl)methyl)-1H-imidazo[4,5-c]pyridin-2-yl)phenoxy)-N,N-dimethylethan-1-amine] | 251
Cc1ccnc(Cn2c(-c3ccc(OCC(C)(C)CO)cc3Cl)nc3c(OC4(C)CC4)ncnc32)c1 [Example T383, 3-(3-chloro-4-(6-(1-methylcyclopropoxy)-9-((4-methylpyridin-2-yl)methyl)-9H-purin-8-yl)phenoxy)-2,2-dimethylpropan-1-ol] | 126
